Results reported in paper PMC4922569, “Antifibrotic Effects of the Dual CCR2/CCR5 Antagonist Cenicriviroc in Animal Models of Liver and Kidney Fibrosis” (PLoS ONE, 2016).
Counter-ions that a name gives are not always drawn.

Columns and labels:
[1] = system: CCL2-mediated chemotaxis of activated murine macrophages (F4/80+/CD11b+); test: Ex vivo CCL2-induced chemotaxis of activated mouse macrophages (Transwell); format: cell-based; conditions: 2 hours
Description: Mouse monocyte migration in response to CVC treatment was assessed ex vivo in triplicate. TG was injected intraperitoneally into male C57BL/6 mice (n = 3; 8–10 weeks of age; Jackson Laboratory, USA) and activated macrophages were collected 48 hours later by peritoneal lavage. Chemotaxis was assayed using a Transwell® Chamber (Costar, USA) with a 5 μm-pore size polycarbonate filter, as previously described. Briefly, cells were incubated for 2 hours in the presence of 1 nM CCL2 and/or 1 μM CVC (dissolved in dimethyl sulfoxide with 0.5% acetic acid and diluted 1:1000 with serum-free Roswell Park Memorial Institute-1640 medium and 0.5% bovine serum albumin). Cells were harvested from the lower compartment and analyzed by flow cytometry to enumerate F4/80^+CD11b^+ macrophages using a 3-laser BD FACSCanto™ (BD Biosciences, Canada). Results were analyzed using FlowJo software (Tree Star Inc., USA).
(§1) In the peritonitis mouse model, one-way analysis of variance with post-hoc Dunnett’s test was performed, using GraphPad Prism® (GraphPad Software, Inc., USA), on differential cell counts obtained from lavage in treatment groups versus the vehicle-control group. For the ex vivo migration of mouse monocytes, statistical significance was determined by a Student’s t test.

[2] = system: monocyte/macrophage recruitment; test: Thioglycollate (TG)-induced mouse model of peritonitis: peritoneal lavage monocyte/macrophage counts; format: in vivo; conditions: for Decrease in peritoneal lavage monocyte/macrophage counts compared to vehicle control: 48 h post-TG
Description: A murine thioglycollate (TG)-induced model of peritonitis, where acute inflammation induced by intraperitoneal (IP) injection of TG results in a rapid increase in monocyte/macrophage migration into the peritoneal cavity, was employed to assess the effects of CVC on cell recruitment in vivo. The protocol was approved by the IACUC of Charles River Laboratories Preclinical Services, Montreal (PCS-MTL). The care and use of animals was conducted in accordance with the guidelines of the US National Research Council and the Canadian Council on Animal Care.
Male C57BL/6 mice (n = 44; 8–10 weeks of age; Charles River Laboratories, Canada) were allocated to receive treatments via oral gavage (PO) on Days 1–5 in the following groups: non-disease control, vehicle control twice daily (BID), CVC 5 mg/kg/day (CVC5) BID, CVC 20 mg/kg/day (CVC20) BID, CVC 100 mg/kg/day (CVC100) BID, CVC20 QD, and positive control dexamethasone (corticosteroid known to reduce inflammation in a variety of animal models) 1 mg/kg QD (S1 Table). On Day 4, peritonitis was induced via IP injection of TG 3.85% (1 mL/animal) 2 hours post-dose in all groups except non-disease controls. Study endpoints included: peritoneal lavage cell counts and pharmacokinetic (PK) evaluation. Animals were sacrificed 48 hours post-TG injection by isoflurane inhalation, and peritoneal lavage and blood samples (0.7 mL) were collected. Differential cell counts were assessed in peritoneal lavage samples using an Advia® Hematology System (Siemens Healthcare Diagnostics, USA) with multispecies software and an analysis software designed for mouse peritoneal fluid on Advia® 120 (LabThruPut, USA). A 0.3 mL aliquot of the blood sample was processed to plasma for PK analysis.
as §1

CCR2 on monocytes = system: CCR2 on monocytes; design: method as in earlier work; conditions: at 6 nmol/L; human PBMC ex vivo; cited from earlier work

## CCCCOCCOc1ccc(-c2ccc3c(c2)/C=C(/C(=O)Nc2ccc([S@@+]([O-])Cc4cncn4CCC)cc2)CCCN3CC(C)C)cc1 [CVC, cenicriviroc mesylate]
[1]; CCL2-stimulated (1 nM) cells treated with CVC 1 μM
  Average fold change in migrating cells (±SD) compared to untreated and unstimulated cells: 0.8±0.2 fold
[1]; unstimulated cells treated with CVC 1 μM
  Average fold change in migrating cells (±SD) compared to untreated and unstimulated cells: 0.7±0.4 fold
[2]; CVC5 (5 mg/kg/day) BID PO Days 1-5
  Decrease in peritoneal lavage monocyte/macrophage counts compared to vehicle control: 5.7%
[2]; CVC20 (20 mg/kg/day) BID PO Days 1-5
  Decrease in peritoneal lavage monocyte/macrophage counts compared to vehicle control: 45.2%
[2]; CVC20 (20 mg/kg/day) QD PO Days 1-5
  Decrease in peritoneal lavage monocyte/macrophage counts compared to vehicle control: 26.0%
[2]; CVC100 (100 mg/kg/day) BID PO Days 1-5
  Decrease in peritoneal lavage monocyte/macrophage counts compared to vehicle control: 76.5%
[2]; CVC100 BID vs dexamethasone 1 mg/kg QD, p < 0.001
  Greater reduction in monocyte/macrophage count compared to dexamethasone: 62.1%
[2]; p < 0.05 vs vehicle control
  Doses achieving statistically significant decrease in monocyte/macrophage recruitment: ≥ 20 mg/kg/day
CCR2 on monocytes
  Receptor occupancy for CCR2 on monocytes: ~ 98%
